From patent US5457114A, “Amidinophenylalanine derivatives, a process for the preparation thereof, use thereof and agents containing these as anticoagulants” (Behringwerke Aktiengesellschaft, priority 1991, dated 1995)

Experiments:
[1] = biological target: human thrombin (Homo sapiens, UniProt P00734); experiment: Determination of the inhibition constants for thrombin; type: biochemical; conditions: human thrombin 100 pM, 0.1 mM substrate S2238, pH 7.8, 37 degrees C., 10 min preincubation
Procedure: The inhibition constants (Ki) for the substances were determined by known enzyme kinetic methods. The purity of the human thrombin employed was determined to be 87% by means of active site titration. […] Inhibitor and enzyme were preincubated for 10 minutes, and the reaction was started by adding the chromogenic substrate S2238.
The specificity of the inhibitors for thrombin and trypsin was determined. The specificity is defined as the ratio of the Ki values for trypsin and thrombin (Table II). […] The Ki values were calculated ([…]) from the IC50 value for thrombin and trypsin. The specificities emerged from the ratio of the trypsin and thrombin values.

[2] = biological target: T1, Trypsin from bovine pancreas (Bos taurus, UniProt P00760); experiment: Determination of the specificity of the inhibitors (trypsin versus thrombin); type: biochemical; conditions: ratio of the Ki values for trypsin and thrombin; Ki calculated from IC50
T1 construct: from tissue; host or cells: bovine pancreas
T1 sequence (P00760 24-246): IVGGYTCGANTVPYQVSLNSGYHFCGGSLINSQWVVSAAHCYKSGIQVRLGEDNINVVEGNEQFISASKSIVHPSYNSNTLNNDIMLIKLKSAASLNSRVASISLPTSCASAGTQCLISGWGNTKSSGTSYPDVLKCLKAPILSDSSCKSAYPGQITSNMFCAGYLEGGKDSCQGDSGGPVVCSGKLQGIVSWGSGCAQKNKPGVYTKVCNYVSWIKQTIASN
Procedure: The specificity of the inhibitors for thrombin and trypsin was determined. The specificity is defined as the ratio of the Ki values for trypsin and thrombin (Table II). […] The enzymatic reaction was started by adding the substrate Chromozym TRY (7.1×10^-5 M). The liberation of pNA was measured at 405 nm after one hour. The IC50 values for thrombin were determined in an analogous manner, with the exceptions that human thrombin, buffer (50 mM tris-HCl, 50 mM NaCl, pH 7.8) and 5×10^-5 M S 2238 were used. The Ki values were calculated ([…]) from the IC50 value for thrombin and trypsin. The specificities emerged from the ratio of the trypsin and thrombin values.

[3] = rat, i.v.
[4] = Enteral administration; conditions: in vivo

Row | Ki [1] | Specificity thrombin/trypsin [2] | possibility of enteral administration [4] | Compound | LD50 [3]
1 | 0.085 nM | 4106 |  | COc1cc(C)c(S(=O)(=O)N[C@@H](CC(=O)N[C@@H]2O[C@H](C(=O)O)[C@@H](O)[C@H](O)[C@H]2O)C(=O)N[C@H](Cc2ccc(C(=N)N)cc2)C(=O)N2CCCCC2)c(C)c1C [4-Methoxy-2,3,6-trimethylphenylsulfonyl-L-asparaginyl-N-[β-D-glucopyranosyl)uronic acid]-D-p-amidinophenylalanyl Piperidide] | 
2 | 0.6 nM | 378 |  | COc1cc(C)c(S(=O)(=O)N[C@@H](CC(=O)OC(C)C)C(=O)N[C@H](Cc2ccc(C(=N)N)cc2)C(=O)N2CCCCC2)c(C)c1C [Mtr-Asp(iPr)-Aph-Pip, Mtr-L-Asp(OiPr)-D-Aph-Pip] | 
3 |  |  |  | N=C(N)c1ccc(CC(NC(=O)[C@H](CC(=O)O)NS(=O)(=O)c2ccc3ccccc3c2)C(=O)N2CCCCC2)cc1 (stereo partly drawn) [β-naphthylsulfonyl-L-Asp-D,L-Aph-Pip, β-Naphthylsulfonyl-L-Asp-D,L-Aph-Pip] | about 120 mg/kg
4 | 1.5 nM | 125 | possibility of enteral administration | COc1cc(C)c(S(=O)(=O)N[C@@H](CC(=O)O)C(=O)N[C@H](Cc2ccc(C(=N)N)cc2)C(=O)N2CCCCC2)c(C)c1C [Mtr-Asp-D-Aph-Pip, 4-Methoxy-2,3,6-trimethylphenylsulfonyl-L-Asp-D-p-amidinophenylalanyl Piperidide] | 
5 | 6 nM | 230 |  | COc1cc2ccc(S(=O)(=O)N[C@@H](CC(=O)O)C(=O)N[C@H](Cc3ccc(C(=N)N)cc3)C(=O)N3CCCCC3)cc2cc1OC [Dmn-Asp-D-Aph-Pip, 6,7-Dimethoxy-β-naphthalenesulfonyl-L-Asp-D-p-amidinophenylalanyl Piperidide] | 
6 | 0.6 nM | 150 |  | 4-Methoxy-2,3,6-trimethylphenylsulfonyl-L-Cys(SO3 H)-D-p-amidinophenylalanyl Piperidide [Mtr-L-Cys (SO3 H)-D-Aph-Pip] | 
7 | 0.9 nM | 297 |  | COc1cc(C)c(S(=O)(=O)NC(CC(=O)OC(C)(C)C)C(=O)NC(Cc2ccc(C(=N)N)cc2)C(=O)N2CCCCC2)c(C)c1C [Mtr-Asp(tBu)-Aph-Pip, Mtr-L-Asp(OtBu)-D-Aph-Pip] | 

Row | Compound | Ki [1] | Specificity thrombin/trypsin [2] | possibility of enteral administration [4] | LD50 [3]
8 | N=C(N)c1ccc(CC(NC(=O)CNS(=O)(=O)c2ccc3ccccc3c2)C(=O)N2CCCCC2)cc1 (stereo not drawn) [Napap, beta-naphthylsulfonyl-glycyl-R,S-4-amidinophenylalanyl piperidide, reference compound] |  | 24 |  | 
9 | N=C(N)c1ccc(C[C@H](NC(=O)[C@H](CC(N)=O)NS(=O)(=O)c2ccc3ccccc3c2)C(=O)N2CCCCC2)cc1 [Nas-Asn-Aph-Pip] | 6 nM | 48 |  | 
10 | COc1cc(C)c(S(=O)(=O)N[C@@H](CC(=O)NCCCC(=O)O)C(=O)N[C@H](Cc2ccc(C(=N)N)cc2)C(=O)N2CCCCC2)c(C)c1C [4-Methoxy-2,3,6-trimethylbenzenesulfonyl-L-aspartic Acid (Gamma-aminobutyric Acid)-D-Aph-piperidide] | 0.8 nM | 1810 |  | 
11 | Beta-Naphthylsulfonyl-L-aspartic Acid D-p-amidinophenyl-alanyl-piperidide [Nas-Asp-D-Aph-Pip] | 10 nM | 7 |  | 
